Results as given in patent US6337410B2, “Antibiotic TKR459, production method, and microorganism” (Takara Shuzo Co., Ltd., priority 1996, dated 2002).
≈ marks a conversion by molar mass, not a printed value. Read-outs that look alike come from different tables or passages of the source.

Tests used:
Candida kefyr TIMM0301 = assay: Antimicrobial spectrum, liquid medium dilution method; assay type: cell-based; settings: for MIC: Kluyveromyces marxianus, Candida kefyr TIMM0301, YNBG medium
Experimental: (§1) The TKR459 obtained was used to determine antimicrobial spectra against various microorganisms. The minimal inhibitory concentration (μg/ml) was measured by the liquid medium dilution method as the minimal concentration causing a substantially complete inhibition of micobial growth. The sub-minimal inhibitory concentration (μg/ml) was determined as the minimal concentration causing a partial inhibition of micobial growth and shown in the parentheses of Table 2. In the table, YNBG stands for a medium comprising 0.67% of yeast nitrogen base (manufactured by Difco) and 1.0% of glucose.

[1] = test system: Candida albicans TIMM0136; assay: as above; assay type: cell-based
Experimental: as §1

[2] = test system: Cryptococcus neoformans TIMM0354; assay: as above; assay type: cell-based
Experimental: as §1

Solubility in solvents = assay type: physicochemical
ICR mice = assay: Toxicity after intraperitoneal administration to ICR mice; assay type: in vivo; settings: 100 mg/kg

With CC(O)(CCCCCCCCCCCCCC1OC(O)C(N)C(O)C1O)CCC(=O)O (stereo not drawn) [TKR459] the Antifungal activity (Candida kefyr TIMM0301; Candida kefyr, summary of Table 2) was “active”, the MIC (Candida kefyr TIMM0301; minimal concentration causing partial inhibition of growth, read-out: Sub-minimal inhibitory concentration (in parentheses)) was 0.39 µg/mL (≈ 0.871 µM) and the MIC (Candida kefyr TIMM0301; substantially complete inhibition of growth, read-out: Minimal inhibitory concentration) was 0.78 µg/mL (≈ 1.74 µM). The MIC ([1]; Candida albicans TIMM0136, YNBG medium, substantially complete inhibition of growth, read-out: Minimal inhibitory concentration) was 0.78 µg/mL (≈ 1.74 µM), the Antifungal activity ([1]; Candida albicans, summary of Table 2) was “active” and the MIC ([2]; Cryptococcus neoformans TIMM0354, YNBG medium, substantially complete inhibition of growth, read-out: Minimal inhibitory concentration) was 3.13 µg/mL (≈ 6.99 µM). The Antifungal activity ([2]; Cryptococcus neoformans, summary of Table 2) was “active”, the Solubility in chloroform (Solubility in solvents; chloroform) was “sparingly soluble” and the Solubility in hexane (Solubility in solvents; hexane) was “sparingly soluble”. For the same compound, the Solubility in methanol (Solubility in solvents; methanol) was “soluble”, the Solubility in water (Solubility in solvents; water) was “soluble” and the Toxic signs (ICR mice) was “no toxic signs”.
